The record followed here is US10577336B2, “Morpholine and 1,4-oxazepane amides as somatostatin receptor subtype 4 (SSTR4) agonists” (Boehringer Ingelheim International GmbH, priority 2014, dated 2020).

Data set [1] is described as follows: Metabolic stability in pooled human liver microsomes (half-life). As to conditions: 37° C., 1 μM test compound. A general note: Liver microsomes are vesicles of endoplasmic reticulum, rich in cytochrome P450 enzymes.
The target in data set [2] is human Somatostatin 4 receptor (hSSTR4) (Homo sapiens (Human), UniProt P31391). Description: cAMP assay with human somatostatin 4 receptor (inhibition of forskolin-stimulated cAMP, hSSTR4 expressing H4 cells). It is filed as cell-based. Conditions: read-out: SSTR4 agonism EC50. Background: Cyclic AMP is a second messenger, typically raised through Gs and lowered through Gi signalling.
Chain of human Somatostatin 4 receptor (hSSTR4) (P31391 whole entry): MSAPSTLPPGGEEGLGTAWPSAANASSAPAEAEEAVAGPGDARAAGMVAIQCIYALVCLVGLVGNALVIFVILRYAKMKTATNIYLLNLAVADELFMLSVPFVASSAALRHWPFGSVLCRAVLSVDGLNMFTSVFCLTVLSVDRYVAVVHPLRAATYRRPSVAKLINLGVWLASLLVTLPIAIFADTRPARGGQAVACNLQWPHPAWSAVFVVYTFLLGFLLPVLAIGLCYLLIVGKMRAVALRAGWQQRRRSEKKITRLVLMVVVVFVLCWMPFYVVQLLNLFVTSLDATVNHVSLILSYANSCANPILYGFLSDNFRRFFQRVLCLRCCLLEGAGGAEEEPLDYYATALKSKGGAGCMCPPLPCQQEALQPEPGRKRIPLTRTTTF

The next data set can be described thus: in vitro. Conditions: human, microsomes, pH 7.6.

Each structure is given as a SMILES string.

As a reminder, the EC50 is the concentration giving half of the maximal effect. As usually defined, the half-life is the time needed for the level to fall by half in the phase considered. Read a low half-life as fast loss.

Turning to `Cc1cccc2c(C(C)(C)NC(=O)[C@@H]3CNCCO3)nn(C)c12` [Example 83], the “Half-life t1/2” value in data set [1] is >2.17 h.

Turning to `Cc1cccn2c(C3(NC(=O)C4CNCCOC4)CC3)ncc12` (stereo not shown) [Example 5], the EC50 in data set [2] is 20.4 nM.

In the case of `Cn1nc(C(C)(C)NC(=O)[C@@H]2CNCCO2)c2cccc(Cl)c21` [Example 79], the “Half-life t1/2” value in data set [1] came out at 1.67 h.

Consider `COc1cccn2c(C(C)(C)NC(=O)[C@@H]3CNCCO3)ncc12` [Example 99], for which the EC50 in data set [2] stood at 43.4 nM.

For the compound `CC(C)(NC(=O)C1CNCCOC1)c1noc2c(Cl)cccc12` (racemic) [Example 72], in data set [2], the half-maximal effective concentration (EC50) turned out to be 17.3 nM.

As to `CC(C)(NC(=O)C1CNCCOC1)c1noc2c(Cl)cccc12` (single isomer, unassigned) [Example 73], the half-life at 1 μM in the data set “in vitro” is > 2.17 h. Besides, in data set [2], the EC50 amounted to 8.4 nM.

Turning to `CC(C)(NC(=O)[C@H]1CNCCO1)c1ccnc2ccccc12` [Example 8], the concentration giving a half-maximal response (EC50) in data set [2] was found to be 258 nM.

On to `Cc1nc(C(C)(C)NC(=O)[C@@H]2CNCCO2)n2cccc(F)c12` [Example 98], for which, in data set [2], the concentration giving a half-maximal response (EC50) amounted to 85.3 nM.

On to `Cn1nc(C(C)(C)NC(=O)C2CNCCOC2)c2cccc(F)c21` (racemic) [Example 76], for which the EC50 in data set [2] is 10 nM.
